# Assay results as given in patent US8003602B2 (priority 2006, dated 2011).
# Key:
# E. faecalis ATCC 51575 = type: cell-based
# Text: (§1) The in-vitro potency was established by minimum inhibitory concentration (MIC) determinations of the compound PM181104 against bacterial strains, by using the Macro-broth dilution method as per National Committee for Clinical Laboratory Standards (2000) guidelines [Journal of Anti-microbial Chemotherapy, 2002, 50, 125-128 (Cross Reference 8: Methods for Dilution Antimicrobial Susceptibility Tests for Bacteria that Grow Aerobically-Fifth Edition: Approved Standard M7-A5. NCCLS, Wayne, Pa., USA)]. Unless stated otherwise, Mueller-Hinton broth was used as nutrient medium for the assay. Linezolid (manufactured by Glenmark Pharma Ltd; Batch no: K2005028) was used as known standard in all in-vitro experiments. For preparation of the stock solution the compound PM181104 was dissolved in chloroform (5% of the total required volume) and diluted using methanol (95% of the total required volume).
# E. faecalis, ATCC 51299 = type: cell-based
# Text: as §1
# [1] = test system: Staphylococcus aureus subsp. aureus ATCC 33591; type: cell-based; conditions: S. aureus MRSA ATCC 33591
# Text: as §1
# [2] = test system: Citrobacter diversus 2046 E; assay: MIC, Macro-broth dilution method; type: cell-based
# Text: as §1
# E. coli SS = assay: MIC, Macro-broth dilution method; type: cell-based
# Text: as §1
# E. faecalis 4073H = assay: MIC, Macro-broth dilution method; type: cell-based
# Text: as §1
# E. faecalis ATCC BAA 472 = assay: MIC, Macro-broth dilution method; type: cell-based
# Text: as §1
# Enterococci KEM-VRE26 = assay: MIC, Macro-broth dilution method; type: cell-based
# Text: as §1
# Enterococci KEM-VRE28 = assay: MIC, Macro-broth dilution method; type: cell-based
# Text: as §1
# Enterococci KEM-VRE29 = assay: MIC, Macro-broth dilution method; type: cell-based
# Text: as §1
# Klebsiella pneumoniae = assay: MIC, Macro-broth dilution method; type: cell-based
# Text: as §1
# Pse. aeruginosa (M-35) = assay: MIC, Macro-broth dilution method; type: cell-based
# Text: as §1
# Salmonella typhi Para A = assay: MIC, Macro-broth dilution method; type: cell-based
# Text: as §1
# [3] = test system: Streptococcus durans 4939 (1) H; assay: MIC, Macro-broth dilution method; type: cell-based
# Text: as §1
# Streptococcus durans = assay: MIC, Macro-broth dilution method; type: cell-based
# Text: as §1
# [4] = test system: Streptococcus equinus 02 D5 Gr1; assay: MIC, Macro-broth dilution method; type: cell-based
# Text: as §1
# E. faecium (R-2) = type: cell-based, Enterococcus faecium; conditions: E. faecium R-2 (VRE)
# Text: as §1
# E. faecium ATCC 51559 = type: cell-based, Enterococcus faecium
# Text: as §1
# E. faecium (O2-D3IP1) = assay: MIC, Macro-broth dilution method; type: cell-based, Enterococcus faecium
# Text: as §1
# E. faecium (VR-1) = assay: MIC, Macro-broth dilution method; type: cell-based, Enterococcus faecium
# Text: as §1
# E. faecium 4045H = assay: MIC, Macro-broth dilution method; type: cell-based, Enterococcus faecium
# Text: as §1
# E. faecium D 18F = assay: MIC, Macro-broth dilution method; type: cell-based, Enterococcus faecium
# Text: as §1
# E. faecium D-59 = assay: MIC, Macro-broth dilution method; type: cell-based, Enterococcus faecium
# Text: as §1
# B. cereus = assay: MIC, Macro-broth dilution method; type: cell-based, Bacillus cereus
# Text: as §1
# B. subtilis ATCC 6633 = assay: MIC, Macro-broth dilution method; type: cell-based, Bacillus subtilis
# Text: as §1
# B. subtilis = assay: MIC, Macro-broth dilution method; type: cell-based, Bacillus subtilis
# Text: as §1
# B. megaterium FH 1127 = assay: MIC, Macro-broth dilution method; type: cell-based, Bacillus megaterium
# Text: as §1
# [5] = test system: Enterococcus faecium ATCC 47077; assay: Kidney infection model; type: in vivo, Balb/C mice; conditions: 5 mg/kg intravenously at 4, 24 and 48 hours post-infection, kidneys harvested at 72 hours
# Text: (§2) The in-vivo potency was established by protection dose (PD) determinations of the compound PM181104 for its antibiotic activity in three animal models using either male or female Balb/C mice.
# (§3) The models used were the general purpose efficacy testing models and organ/tissue specific efficacy testing models. The general purpose efficacy testing models used were systemic infection model (septicemia), and localized infection model (neutropenic thigh model). The Organ/Tissue specific infection models used for efficacy testing were kidney, lung infection, and skin abscess model.
# 0.2 ml of 2% λ Carrageenan was administered intravenously to Balb/C mice 7 days prior to infection. Overnight grown log phase culture of Enterococcus faecium ATCC 47077 adjusted to approximately 10^9 cfu/ml, was injected intravenously to the mice at a volume of 0.2 ml. PM181104 solution, prepared in cremophor-ethanol formulation as described in example 14, was administered intravenously to the mice at 4 hours, 24 hours and 48 hours post-infection. At 72 hours post infection, the animals were sacrificed and kidneys were harvested to determine the bacterial load. […] Linezolid (manufactured by Glenmark Pharma Ltd; Batch no: K2005028) at 25 mg/kg and Vancomycin hydrochloride (manufactured by HiMedia; Catalogue no: RM217-500 mg; Lot no: 06-0350) at 150 mg/kg dose.
# [6] = test system: methicillin resistant S. aureus E710 (MRSA); type: in vivo, Balb/C mice; conditions: 5 mg/kg intravenously two hours post infection
# Text: as §2, §3
# Balb/C mice were infected subcutaneously with approximately 10^8 cfu of an overnight grown culture of methicillin resistant S. aureus E710 (MRSA). The bacteria were suspended in 1:1 mixture of 2% cytodex beads in normal saline (0.85% sodium chloride). PM181104 was prepared in cremophor-ethanol formulation as described in example 14. The solution was administered intravenously at 2.5 mg, 5 mg and 10 mg/kg doses, two hours post infection. Each experimental group consisted of six animals. Following abscess formation the animals were sacrificed and abscess harvested to determine the viable counts. […] Linezolid (manufactured by Glenmark Pharma Ltd; Batch no: K2005028) at 50 mg/kg dose.
# [7] = solvents in which soluble
# Text: The physico-chemical and spectral properties of the compound PM181104
smiles,measurement,setting,value
C=C(NC(=O)C(=C)NC(=O)C1CCCN1C(=O)c1nc(-c2ccc(-c3nc(C(=O)NC(=C)C(=O)NC(C)C(N)=O)cs3)c(-c3csc(C4Cc5nc(cs5)C(=O)NC(Cc5ccccc5)C5=NC(CS5)C(=O)NC(Cc5ccc(O)cc5)C(=O)N5CCCC5c5nc(cs5)C(=O)N4)n3)n2)oc1C)C(N)=O (stereo not drawn) [PM181104],MIC,E. faecalis ATCC 51575,31.25 ng/mL
same,MIC,"E. faecalis, ATCC 51299",15.63 ng/mL
same,MIC,[1],31.25 ng/mL
same,MIC,[2],>1000 ng/mL
same,MIC,E. coli SS,>1000 ng/mL
same,MIC,E. faecalis 4073H,7.81 ng/mL
same,MIC,E. faecalis ATCC BAA 472,15.63 ng/mL
same,MIC,Enterococci KEM-VRE26,7.81 ng/mL
same,MIC,Enterococci KEM-VRE28,7.81 ng/mL
same,MIC,Enterococci KEM-VRE29,3.91 ng/mL
same,MIC,Klebsiella pneumoniae,>1000 ng/mL
same,MIC,Pse. aeruginosa (M-35),>1000 ng/mL
same,MIC,Salmonella typhi Para A,>1000 ng/mL
same,MIC,[3],7.81 ng/mL
same,MIC,Streptococcus durans,7.81 ng/mL
same,MIC,[4],15.63 ng/mL
same,MIC,E. faecium (R-2),7.81 ng/mL
same,MIC,E. faecium ATCC 51559,7.81 ng/mL
same,MIC,E. faecium (O2-D3IP1),3.91 ng/mL
same,MIC,E. faecium (VR-1),7.81 ng/mL
same,MIC,E. faecium 4045H,7.81 ng/mL
same,MIC,E. faecium D 18F,7.81 ng/mL
same,MIC,E. faecium D-59,7.81 ng/mL
same,MIC,B. cereus,3.91 ng/mL
same,MIC,B. subtilis ATCC 6633,7.81 ng/mL
same,MIC,B. subtilis,15.63 ng/mL
same,MIC,B. megaterium FH 1127,7.81 ng/mL
same,decrease in bacterial count in kidneys,[5],approximately 1 log
same,decrease in bacterial count in abscess,[6],approximately 1 log
same,Solubility,[7],"Methanol, DMSO"
